Measured values as given in ChEMBL document CHEMBL5329202, “New aryl-/heteroarylpiperazine derivatives of 1,7-dimethyl-8,9-diphenyl-4-azatricyclo[5.2.1.02,6]dec-8-ene-3,5,10-trione: Synthesis and preliminary studies of biological activities” (Bioorg Med Chem, 2023).

Tests used:
MDA-MB-231 = experiment: Cytotoxicity against human MDA-MB-231 cells assessed as cell growth inhibition measured after 72 hrs by MTT assay; assay type: functional, cell-based; details: MDA-MB-231, 72 h
K562 = experiment: Cytotoxicity against human K562 cells assessed as cell growth inhibition measured after 72 hrs by MTT assay; assay type: functional, cell-based; details: K562, 72 h
[1] = Cytotoxicity against human HMEC-1 cells assessed as cell growth inhibition measured after 72 hrs by MTT assay; assay type: toxicity, cell-based
A549 = experiment: Cytotoxicity against human A549 cells assessed as cell growth inhibition measured after 72 hrs by MTT assay; assay type: functional, cell-based; details: A549, 72 h
HCT-116 = experiment: Cytotoxicity against human HCT-116 cells assessed as cell growth inhibition measured after 72 hrs by MTT assay; assay type: functional, cell-based; details: HCT-116, 72 h
HepG2 = experiment: Cytotoxicity against human HepG2 cells assessed as cell growth inhibition measured after 72 hrs by MTT assay; assay type: functional, cell-based; details: HepG2, 72 h
[2] = target: T1, 5-hydroxytryptamine receptor 1A (Rattus norvegicus) (UniProt P19327); experiment: Agonist activity at Sprague-Dawley rat hippocampal membrane 5-HT1A receptor assessed as stimulation of [35S]GTPgammaS binding by measuring maximal efficacy measured after 90 mins by scintillation counter analysis relative to control; assay type: functional, cell membranes; details: Hippocampus, filed as agonist
T1 sequence (whole entry): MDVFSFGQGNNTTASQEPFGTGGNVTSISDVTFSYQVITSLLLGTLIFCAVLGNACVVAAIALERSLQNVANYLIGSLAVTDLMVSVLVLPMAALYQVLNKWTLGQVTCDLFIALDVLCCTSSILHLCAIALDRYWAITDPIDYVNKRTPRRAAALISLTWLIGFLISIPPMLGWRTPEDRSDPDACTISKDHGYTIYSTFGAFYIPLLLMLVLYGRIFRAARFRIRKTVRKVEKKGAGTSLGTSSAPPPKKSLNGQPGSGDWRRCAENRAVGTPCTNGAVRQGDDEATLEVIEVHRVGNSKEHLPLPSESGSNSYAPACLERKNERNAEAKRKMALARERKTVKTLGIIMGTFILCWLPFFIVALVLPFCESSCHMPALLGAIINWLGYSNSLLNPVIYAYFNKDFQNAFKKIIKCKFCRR

SMILES	IC50 (MDA-MB-231) [µM]	IC50 (K562) [µM]	IC50 at 72 h [1] [µM]	IC50 (A549) [µM]	IC50 (HCT-116) [µM]	IC50 (HepG2) [µM]	Emax [2] [%]
COc1cccc2c1C(=O)c1c(O)c3c(c(O)c1C2=O)C[C@@](O)(C(=O)CO)C[C@@H]3O[C@H]1C[C@H](N)[C@H](O)[C@H](C)O1 [DOXORUBICIN]	0.12	0.21	0.5	0.24	0.96	0.29	
CCCN(CCC)C1CCc2cccc(O)c2C1 (configuration not stated)							148
